Experimental data published in patent US20260166003A1, “NOVEL APTAMER, AND COMPOSITION FOR COGNITIVE FUNCTION IMPROVEMENT AND ANTI-AGING COMPRISING APTAMER AS ACTIVE INGREDIENT” (NEXMOS CO., LTD, priority 2021, published 2026).

Assays:
[1] = OPDA assay of vitamin C oxidation delay; format: biochemical; conditions: L-ascorbic acid 0.1%, aptamer 0.001%, hydrogen peroxide, 900 minutes; compared with C332 and other 20 mer aptamers; FIG. 2
Procedure: In this case, the L-ascorbic acid was mixed at a ratio of 0.1% and the aptamer was mixed at 0.001%. Thereafter, hydrogen peroxide was added to prepare an oxidation condition, and then oxidation of L-ascorbic acid was measured by adding o-phenylenediamine (OPDA), a fluorescent dye. The degree of DHA production may be quantitatively analyzed by measuring the amount of fluorescence from DHA-OPDA generated by the reaction of DHA, an oxide of L-ascorbic acid, with OPDA. Under the above conditions, the amount of fluorescence of DHA-OPDA was measured every 2 minutes for a total of 900 minutes.

[2] = OPDA assay in gastric acid-like low pH environment; format: physicochemical; conditions: pH between 1.4 and 1.6 with hydrochloric acid, hydrogen peroxide, 900 minutes; compared to normal condition; FIG. 3
Procedure: OPDA assay was used to confirm whether the vitamin C oxidation delay effect of aptamin C320 was maintained in a low pH environment similar to gastric acid in order to confirm that the effect of the substance was not reduced or eliminated by the pH environment in the stomach when ingested orally.
Thereafter, hydrogen peroxide was added to prepare an oxidation condition, and at this time, the pH was adjusted to be between 1.4 and 1.6 using hydrochloric acid, and oxidation of L-ascorbic acid was measured by adding an o-phenylenediamine (OPDA), which is a fluorescent dye. The degree of DHA production can be quantitatively analyzed by measuring the amount of fluorescence from DHA-OPDA generated by the reaction of DHA, an oxide of L-ascorbic acid, with OPDA. Under the above conditions, the fluorescence amount of DHA-OPDA was measured every 2 minutes for a total of 900 minutes.

With “aptamin C320: 20 mer DNA aptamer, SEQ ID NO: 1, GCCAGTCTCGCGGTGGCGGC, delays oxidation of vitamin C (DNA, backbone and methylation of C not given here)” the “vitamin C oxidation delay effect (DHA-OPDA fluorescence)” value [1] was “delays the oxidation of vitamin C to the highest extent” and the “maintenance of vitamin C oxidation delay effect in acid condition” value [2] was “maintained without significantly decreasing in acid condition”.
